This is an account of results in patent US10508309B2, “Methods for detecting and treating variants of seborrheic keratoses” (THE GENERAL HOSPITAL CORPORATION, priority 2013, dated 2019).

The subject of the test is SK. As to the kind of experiment: Response to A44/puro (summary of features for KA, SK, and SCC). The settings on record: seborrheic keratosis (SK) column; the KA and SCC cells print "?".

Molecules are shown by their SMILES.

Consider `COc1ccc(C[C@H](N)C(=O)N[C@H]2[C@@H](O)[C@H](n3cnc4c(N(C)C)ncnc43)O[C@@H]2CO)cc1` [puro, puromycin], for which the “Response to A44/puro?” value is “Yes”.
